The test concerns clathrin heavy chain (CHC; antibody recognises both CHC1 and CHC2). The test is described as follows: CETSA. Type of test: biochemical, Arabidopsis thaliana.

On to `O=S(=O)(Nc1ccccc1)c1ccc(Br)s1` [compound 14, ES9-17], for which it took 123 ± 1.13 µM to reach a half-maximal effect (EC50).

For the origin of these results see paper PMC7612312 (Nature chemical biology, 2019).
